Test results published in publication PMC10892719 (Pharmaceutics, 2024).
“Also recorded” adds a separate entry of the source. Read-outs that look alike come from different tables or passages of the source.

Columns and labels:
Aβ1-42 = molecular target: T1, Aβ1-42 (Homo sapiens, UniProt P05067); assay: Inhibition of Aβ1-42 self-aggregation, thioflavin T fluorescence; type: biochemical; details: Cinhibitor = 20 µM, Aβ1-42 40 µM, 37 °C, 24 h, read-out: Aβ42 Self-Aggreg. Inhib
T1 construct: purchased Genecust, Boynes, France
T1 sequence (P05067 672-713 limits assumed): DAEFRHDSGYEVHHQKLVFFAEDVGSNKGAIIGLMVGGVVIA
Protocol: The Aβ peptide (Genecust, Boynes, France) was treated with 1,1,1,3,3,3-hexafluoropropan-2-ol (HFIP, Aldrich, Steinheim, Germany) and dissolved in a CH3CN/Na2CO3 (300 µM)/NaOH (250 µM) ([…], v/v/v) mixture in order to have a stable stock solution of Aβ1-42 with concentration 500 µM.
Solutions of the assayed compounds (0.5 mg/mL) were firstly prepared in 60% (v/v) DMSO/MeOH medium and then diluted in phosphate buffer (0.215 M, pH 8.0) to a concentration of 120 µM. The Aβ1-42 aggregation inhibition assays were performed according to a reported method based on the fluorescence emission of thioflavin T (ThT, Aldrich Steinheim, Germany). Therefore, Aβ1-42 (40 µM) was incubated at 37 °C for 24 h in phosphate buffer and in the presence or absence of each ligand (20 µM). Then, the samples were added to a 96-well plate with 180 µL of 5 µM ThT in 50 mM glycine-NaOH (pH 8.5) buffer. Blank samples were identically prepared for each concentration but in the absence of the peptide. The ThT fluorescence was measured at 445 nm (excitation) and 485 nm (emission). The percent of aggregation inhibition was calculated by the following equation:I% = 100 − (IFi/IF0 × 100), in which IFi and IF0 are the fluorescence intensities, in the presence and the absence of the tested compound, subtracted from the fluorescence intensities due to the respective blanks. The reported values were obtained as the mean ± SEM of two different experiments performed in duplicate.
The inhibitory capacity of the RIV-IND hybrids towards Aβ42 self-aggregation was evaluated in vitro by molecular fluorescence spectroscopy through the thioflavin T (ThT) method. In fact, since there is an increase in the absorbance and emission of ThT when it binds to amyloid fibrils, it is possible to determine the percent of Aβ42 self-aggregation (see Table 1). The assays were performed in the presence of 20 µM of inhibitor to overcome the solubility limitations of some compounds in the phosphate buffer aqueous medium.

[1] = DPPH free radical scavenging (antioxidant) assay; details: read-out: Antioxidant Activity EC50; DPPH method, mean of three independent experiments
Protocol: The radical scavenging activity (antioxidant capacity) of the herein-developed RIV-IND hybrids was determined by the DPPH method [33]. Working solutions of the compounds in 10% DMSO/MeOH (, HoneywellSeelze, Germany) medium were used to prepare 5 methanolic solutions (5 points, 3 replicates) containing DPPH (Sigma-Aldrich, Steinheim, Germany) and different concentrations of compound up to 3.5 mL total volume. […] The respective antioxidant activity (%AA) was calculated using the following equation: %AA=ADPPH−Aligand/ADPPH×100
The reported results were obtained as the mean values of three independent experiments.
The new RIV-IND compounds were also screened for their radical scavenging activity (EC50), according to the 2,2-diphenyl-1-picrylhydrazyl (DPPH) free radical method.

SH-SY5Y cells [2] = assay: Cell viability dose-response screening, MTT; type: cell-based, human; details: 24 h, screening 0.5 µM to 20 µM
Protocol: (§1) Cell viability, following treatment with the compounds, was determined using the colorimetric MTT (3-(4,5-dimethylthiazol-2-yl)-2,5-diphenyltetrazolium bromide) assay. The tested compounds (5a1-3, 5b1-3, 5c1-3) were dissolved in DMSO to produce stock solutions of 25 mM and stored at −20 °C. A concentration screening was performed for 0.5 µM to 20 µM final concentrations to choose the highest nontoxic concentration. SH-SY5Y human neuroblastoma cell line (ATCC-CRL-2266) was cultured in Dulbecco’s modified Eagle’s medium (DMEM) (Gibco-Invitrogen, Life Technologies Ltd., Waltham, MA, USA) with heat-inactivated fetal calf serum (10%), penicillin (50 U/mL) and streptomycin (50 µg/mL) at 37 °C with 5% CO2. Cells were plated at 0.15 × 10^6 cells/mL one day prior to the start of the experiment. The cells were then incubated with the appropriate concentration of the compounds for 24 h. After the incubation period, the cells were washed once with PBS and incubated with 200 µL MTT (0.5 mg/mL) for 2 h at 37 °C with 5% CO2. During this period, cellular dehydrogenase successfully metabolized MTT into formazan, which was then solubilized using 200 µL of 0.04 M HCl/isopropanol. Absorbance was measured at 570 nm.
The new RIV-IND hybrids were tested to determine their protective role in the toxicity induced by either Aβ1-42 peptides or iron/ascorbate. SH-SY5Y cells were incubated with a set of concentrations of each of the compounds and a dose–response curve was constructed to select the highest nontoxic concentration.
Figure 3 Dose–response screening of RIV-IND compounds 5a1-3, 5b1-3 and 5c1-3 measured by MTT reduction ability on SH-SY5Y cells treated with different concentrations of the compounds for 24 h. Results are expressed relatively to untreated cells, with the mean ± standard error of the mean (SEM) derived from three independent experiments. * p < 0.05; ** p < 0.01; *** p < 0.001 compared to untreated cells. (The dot line indicates 100% cellular viability).

[3] = molecular target: T2, equine butyrylcholinesterase (eqBChE) (Equus caballus, UniProt P81908); assay: BChE inhibition, adapted Ellman method; type: biochemical; details: for SI (selectivity index): IC50 (AChE)/IC50 (BChE); for IC50: eqBChE, mean of two independent experiments ± SD, read-out: BChE Inhib IC50
T2 construct: purchased Sigma-Aldrich (Steinheim, Germany)
T2 sequence (P81908 whole entry): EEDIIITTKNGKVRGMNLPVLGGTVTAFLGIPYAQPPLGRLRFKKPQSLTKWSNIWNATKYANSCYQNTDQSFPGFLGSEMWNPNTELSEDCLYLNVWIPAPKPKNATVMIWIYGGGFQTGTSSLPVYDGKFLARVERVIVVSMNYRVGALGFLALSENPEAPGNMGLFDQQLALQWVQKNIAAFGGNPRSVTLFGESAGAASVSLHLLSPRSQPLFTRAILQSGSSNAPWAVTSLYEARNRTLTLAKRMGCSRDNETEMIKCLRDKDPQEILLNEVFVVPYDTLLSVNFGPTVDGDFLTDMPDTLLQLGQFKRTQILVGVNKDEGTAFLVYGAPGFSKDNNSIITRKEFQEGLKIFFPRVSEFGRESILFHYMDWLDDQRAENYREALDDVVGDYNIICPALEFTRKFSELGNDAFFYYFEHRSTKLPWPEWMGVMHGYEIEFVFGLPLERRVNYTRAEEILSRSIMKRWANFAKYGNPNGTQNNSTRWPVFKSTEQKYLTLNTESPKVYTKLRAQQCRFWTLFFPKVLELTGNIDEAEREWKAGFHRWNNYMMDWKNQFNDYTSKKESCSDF
Protocol: (§2) The enzyme inhibition of electric eel acetylcholinesterase (eeAChE) and equine butyrylcholinesterase (eqBChE) by our compounds was evaluated through an adaptation of Elmman´s method using reagents from Sigma-Aldrich (Steinheim, Germany). Stock solutions of each compound (1 mg) in MeOH (1 mL) were prepared and then working solutions for each ligand were obtained by the corresponding dilution of the stock solutions. A control measurement with 5 replicates (without ligand) and a calibration curve of 5 points with 3 replicates per point was performed. The preparation of each solution involved fixed volumes of 4-(2-hydroxyethyl)-1-piperazine-ethanesulfonic acid (HEPES) and cholinesterase (eeAChE or eqBChE) with different volumes of ligand solution, and it was left to rest for 15 min immediately after adding the cholinesterase. A blank solution containing HEPES and MeOH was also prepared at the same time. […] The slope for each calibration point (absorbance versus reaction time) was determined and the inhibition for each compound was calculated by using the following equation: %Inhibition=100−(vi/v0×100) where vi is the reaction rate (slope) for each point of the calibrate with ligand and v0 is the initial reaction rate (slope) for the control point (without ligand). […] Experiments were performed twice for each compound.

[4] = molecular target: T3, electric eel acetylcholinesterase (eeAChE) (Electrophorus electricus, UniProt O42275); assay: AChE inhibition, adapted Ellman method; type: biochemical; details: mean of two independent experiments ± SD, read-out: AChE Inhib IC50
T3 construct: purchased Sigma-Aldrich (Steinheim, Germany)
T3 sequence (O42275 24-633): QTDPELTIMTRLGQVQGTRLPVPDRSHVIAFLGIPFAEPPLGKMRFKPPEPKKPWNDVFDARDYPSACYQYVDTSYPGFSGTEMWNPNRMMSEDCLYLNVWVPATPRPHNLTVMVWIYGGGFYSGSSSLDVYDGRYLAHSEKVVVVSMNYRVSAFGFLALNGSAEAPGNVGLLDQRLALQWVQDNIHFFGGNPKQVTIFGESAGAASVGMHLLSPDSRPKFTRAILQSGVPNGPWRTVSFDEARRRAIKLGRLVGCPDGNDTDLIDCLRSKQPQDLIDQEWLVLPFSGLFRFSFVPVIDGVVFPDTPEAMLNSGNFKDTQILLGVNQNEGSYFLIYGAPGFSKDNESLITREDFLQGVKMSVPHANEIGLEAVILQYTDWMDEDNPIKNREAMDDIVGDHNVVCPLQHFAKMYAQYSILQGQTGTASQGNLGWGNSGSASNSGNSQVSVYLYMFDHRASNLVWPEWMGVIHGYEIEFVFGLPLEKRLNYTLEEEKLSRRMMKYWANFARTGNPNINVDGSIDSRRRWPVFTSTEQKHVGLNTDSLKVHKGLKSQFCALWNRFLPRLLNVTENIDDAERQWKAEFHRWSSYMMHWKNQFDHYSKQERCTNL
Protocol: as §2

SH-SY5Y cells [5] = assay: Neuroprotection against Aβ1-42-induced toxicity, MTT; type: cell-based, human; details: Aβ1-42 1 µM, 24 h, optimized concentration of each compound
Protocol: as §1
To test whether the compounds have a protective effect against toxicity induced by Aβ1-42 or iron/ascorbate, the cells were pre-incubated for 1 h with each compound, followed by the addition of Aβ1-42 or iron/ascorbate and incubation for an additional 24 h. Aβ1-42 (Bachem, Torrance, CA, USA) was prepared in sterile water to produce a stock solution of 443 µM and added to the cells at a final concentration of 1 µM. Ferrous sulfate and L-ascorbic acid (Sigma Chemical Co, St. Louis, MO, USA), prepared in sterile water, were added to the medium together at a final concentration of 5 mM and 2.5 mM, respectively. For this assay, the optimal concentration of each compound was used to prevent cellular demise induced by Aβ1-42 or iron/ascorbate. Compound 5a1 was added to the medium at a 1 µM final concentration; compounds 5a2, 5a3, 5b1, 5b2 and 5c2 were added to the medium at a 2.5 µM final concentration; compounds 5c1 and 5c3 were added to the medium at a 5 µM final concentration; and compound 5b3 was added to the medium at a 10 µM final concentration. […] Controls were employed for each plate using untreated cells and Aβ1-42 or iron/ascorbate only. Cell reduction ability was normalized to the untreated condition. All data are expressed as mean ± SEM of at least three independent experiments performed in duplicate. Statistical analyses were performed for normality assessment using Shapiro–Wilk’s test followed by the Kruskal–Wallis test considering that normality was not verified. Post hoc analysis was performed using uncorrected Dunn’s test. A p value < 0.05 was considered statistically significant.
Figure 4 Neuroprotective effect of RIV-IND compounds against cellular toxicity induced by Aβ1-42 measured by MTT reduction ability on SH-SY5Y cells pretreated with […] for one hour, followed by a 24 h incubation with the optimized concentration of each compound. Results are expressed relatively to untreated cells, with the mean ± standard error of the mean (SEM) derived from three to seven independent experiments. * p < 0.05; ** p < 0.01; *** p < 0.001; **** p < 0.0001 compared to untreated cells. # p < 0.05 compared to Aβ1-42-treated cells. (The dot line indicates the decrease in cellular viability induced by Aβ).

SH-SY5Y cells [6] = assay: Neuroprotection against iron/ascorbate-induced toxicity, MTT; type: cell-based, human; details: ferrous sulfate 5 mM and L-ascorbic acid 2.5 mM, 24 h, optimized concentration of each compound
Protocol: as §1
To test whether the compounds have a protective effect against toxicity induced by Aβ1-42 or iron/ascorbate, the cells were pre-incubated for 1 h with each compound, followed by the addition of Aβ1-42 or iron/ascorbate and incubation for an additional 24 h. Aβ1-42 (Bachem, Torrance, CA, USA) was prepared in sterile water to produce a stock solution of 443 µM and added to the cells at a final concentration of 1 µM. […] All data are expressed as mean ± SEM of at least three independent experiments performed in duplicate. […]
Figure 5 Neuroprotective effect of RIV-IND compounds against cellular toxicity induced by iron/ascorbate (Fe/Asc) measured by MTT reduction ability on SH-SY5Y cells pretreated with iron/ascorbate for one hour, followed by a 24 h incubation with the optimized concentration of each compound. […]

[7] = set-up: method as in PMID 23344203; details: reference antioxidant; read-out: radical scavenging activity EC50; cited from earlier work

| Compound | inhibition at 20 µM (Aβ1-42) [%] | EC50 [1] [µM] | highest nontoxic concentration (SH-SY5Y cells [2]) [µM] | SI (selectivity index) [3] | IC50 [3] [µM] | IC50 [4] [µM] | neuroprotective effect against toxicity induced by Aβ1-42 (SH-SY5Y cells [5]) | neuroprotective effect against toxicity induced by iron/ascorbate (SH-SY5Y cells [6]) | EC50 [7] [µM] |
| --- | --- | --- | --- | --- | --- | --- | --- | --- | --- |
| CCN(C)C(=O)Oc1cccc(NC(=O)c2cc3ccccc3[nH]2)c1 [Compound 5a1] | 26.9 | > 2000 | 1 | 6.0 | 29.9 ± 0.4 | – | – | – | – |
| CCN(C)C(=O)Oc1cccc(NC(=O)c2cc3cc(O)ccc3[nH]2)c1 [Compound 5a2, 3-(5-Hydroxy-1H-indole-2-carboxamido)phenyl ethyl(methyl)carbamate] | 25 | 8.4 ± 0.2 | 2.5 | 64.0 | 3.22 ± 0.02 | 206 ± 4 | – | – | – |
| CCN(C)C(=O)Oc1cccc(CNC(=O)c2cc3cc(O)ccc3[nH]2)c1 [Compound 5b2, 3-((5-Hydroxy-1H-indole-2-carboxamido)methyl)phenyl-ethyl(methyl)carbamate] | 29.4 | 7.8 ± 0.5 | 2.5 | 3.0 | 27.1 ± 0.1 | 80 ± 2 | can prevent the toxicity induced by Aβ1-42 to cells; also recorded: able to rescue Aβ1-42-induced toxicity to levels that were not significantly different from untreated cells; also recorded: able to prevent the toxicity induced by Aβ1-42 to neuroblastoma cells (SH-SY5Y) | – | – |
| CCN(C)C(=O)Oc1cccc(CNC(=O)c2cc3cccc(O)c3[nH]2)c1 [Compound 5b3, 3-((7-Hydroxy-1H-indole-2-carboxamido)methyl)phenyl-ethyl(methyl)carbamate] | 47.8 | 20.2 ± 0.4 | 10 | 14.2 | 5.7 ± 0.3 | 80.7 ± 0.4 | – | able to significantly increase cell viability after the trigger; also recorded: able to significantly protect cell viability after iron/ascorbate oxidative insult | – |
| CCN(C)C(=O)Oc1cccc(CCNC(=O)c2cc3ccccc3[nH]2)c1 [Compound 5c1, 3-(2-(1H-indole-2-carboxamido)ethyl)phenyl ethylmethylcarbamate] | 25.6 | > 2000 | 5 | 2.8 | 14.5 ± 0.7 | 40 ± 2 | – | – | – |
| CCN(C)C(=O)Oc1cccc(CCNC(=O)c2cc3cc(O)ccc3[nH]2)c1 [Compound 5c2, 3-(2-(5-Hydroxy-1H-indole-2-carboxamido)ethyl)phenyl ethyl(methyl)carbamate] | 49.9 | 8.5 ± 0.6 | 2.5 | 3.8 | 15.2 ± 0.4 | 58.6 ± 0.3 | can prevent the toxicity induced by Aβ1-42 to cells; also recorded: able to rescue Aβ1-42-induced toxicity to levels that were not significantly different from untreated cells; also recorded: able to prevent the toxicity induced by Aβ1-42 to neuroblastoma cells (SH-SY5Y) | – | – |
| CCN(C)C(=O)Oc1cccc(CCNC(=O)c2cc3cccc(O)c3[nH]2)c1 [Compound 5c3, 3-(2-(7-Hydroxy-1H-indole-2-carboxamido)ethyl)phenyl ethyl(methyl)carbamate] | 55.5 | 20.7 ± 0.4 | 5 | 1.8 | 14.9 ± 0.7 | 26.8 ± 0.3 | also present neuroprotection | – | – |
| Cc1c(O)c(=O)ccn1C [Deferiprone, deferiprone, reference compound] | – | 148 ± 3 | – | – | – | – | – | – | – |
| Cc1c(C)c2c(c(C)c1O)CCC(C)(C(=O)O)O2 (stereo not drawn) [Trolox, reference compound] | – | 13.8 ± 0.2 | – | – | – | – | – | – | – |
| O=C1O[C@H]([C@@H](O)CO)C(O)=C1O [vitamin C] | – | – | – | – | – | – | – | – | 15 |
